Converted amounts (≈) assume the structure as drawn.
Key:
Assay type in all cases: functional, Homo sapiens
C8166 [1] = assay: Protection of C8166 cells against the cytopathic effect of HIV isolate RF
ATH-8 cell line = assay: Protection of ATH8 cells against the cytopathic effect of HIV isolate […]
C8166 [2] = assay: Protection of C8166 cells against the cytopathic effect of HIV isolate CBL-1
C8166 [3] = assay: Pprotection of C8166 cells against the cytopathic effect of HIV isolate RF

**Q.** Which ED90 (C8166 [1]) does the source give for Cc1cn(C2C[C@@H](C#N)[C@@H](CO)O2)c(=O)[nH]c1=O (stereo partly drawn) here?
**A.** >100 µg/mL

**Q.** What about the ED90 (ATH-8 cell line) of the same compound?
**A.** >2.5 µg/mL

**Q.** What about the ED90 (C8166 [2]) of the same compound?
**A.** >100 µg/mL

**Q.** What does the source list for Cc1cn([C@H]2C=C[C@@H](CO)O2)c(=O)[nH]c1=O [STAVUDINE]?
**A.** ED90 (C8166 [3]): 1 µg/mL (≈ 4.46 µM); ED90 (ATH-8 cell line): <0.25 µg/mL

**Q.** Which results are given for Cc1cn([C@H]2C[C@H](N=[N+]=[N-])[C@@H](CO)O2)c(=O)[nH]c1=O [ZIDOVUDINE]?
**A.** ED90 (C8166 [3]): 1 µg/mL (≈ 3.74 µM); ED90 (ATH-8 cell line): <0.25 µg/mL; ED90 (C8166 [2]): 0.1 µg/mL (≈ 0.374 µM)

Source: ChEMBL document CHEMBL1124670, “1-(3-cyano-2,3-dideoxy-beta-D-erythro-pentofuranosyl)thymine (cyanothymidine): synthesis and antiviral evaluation against human immunodeficiency virus” (1989)
